This assay has as its system upper airways. Put plainly: Animal model of obstructive sleep apnoea in the pig (collapsibility of the upper airways under negative pressure). Format: in vivo, German Landrace pigs. The text has this:
The effects of the formulations according to the invention of the inhibitors of TASK-1 and/or TASK-3 channels on the activation threshold of the genioglossus muscle by negative pressure and the collapsibility of the upper airways were investigated in a pig model for obstructive sleep apnoea. Using negative pressure, it is possible to induce collapse and thus obstruction of the upper airways in anaesthetized, spontaneously breathing pigs [Wirth et al., Sleep 36, 699-708 (2013)]. German Landrace pigs were used for the model. Since the nasal axis is in an almost vertical position in humans in a horizontal sleeping position, the pigs in the experiments were fixed in a sitting position (70 degrees), wherein the nose pointed upwards. After nasal administration, the formulation therefore flowed downwards over all regions of the upper airways. The pigs were anaesthetized and tracheotomized. One cannula each was inserted into the rostral and the caudal part of the trachea. Using a T connector, the rostral cannula was connected on the one hand to a device generating negative pressure and on the other hand to the caudal cannula. Using a T connector, the caudal cannula was connected to the rostral cannula and to a tube which allowed spontaneous breathing circumventing the upper airways. By appropriate closing and opening of the tubes it was thus possible for the pig to change from normal nasal breathing to breathing via the caudal cannula during the time when the upper airways were isolated and were connected to the device for generating negative pressure. The muscle activity of the Musculus genioglossus was recorded by electromyogram (EMG). At certain points in time, the collapsibility of the upper airways was tested by having the pig breathe via the caudal cannula and applying negative pressures of −50, −100 and −150 mbar (corresponding to −50, −100 and −150 cm water column (cm H2O)) to the upper airways. This caused the upper airways to collapse, which manifested itself in an interruption of the airflow and a pressure drop in the tube system. This test was conducted prior to administration of the test substance and at certain intervals after administration of the test substance. An appropriately effective test substance could prevent this collapse of the airways in the inspiratory phase. After changeover from nasal breathing to breathing via the caudal cannula, it was not possible to measure any EMG activity of the Musculus genioglossus in the anaesthetized pig. As a further test, the negative pressure at which EMG activity restarted was then determined. This threshold value was, if a test substance was effective, shifted to more positive values. The test was likewise conducted prior to the administration of the test substance and at certain intervals after the administration of the test substance. The test substance was administered by the nasal route. The results shown in the tables which follow were conducted with the compounds listed in Table 1 as Example 1, Example 3 and Example 4. Unless stated otherwise, the data were measured at a negative pressure of −100 mbar (corresponding to −100 cm water column (cm H2O)) on the upper airways. The active ingredients listed in Table 1 as Example 1, Example 3 and Example 4 were dissolved in the various formulations listed in Table 2 below and administered in an amount of 0 μg, 3 μg, 10 μg, 30 μg or 100 μg per pig. The active ingredient formulation or the pure vehicle was each administered with a pipette at a volume of 400 μl in each nostril. The duration of action in this pig model is defined as the time [min] in which a collapse of the upper airways was not observed in any animal, as a mean value of the specified number of animals. A duration of action specified as “>” X min signifies that the experiment was terminated at X min and up to this point a collapse of the upper airways was still not observed in any animal.

Marks after values point to notes of the source that are not given here.

Take `O=C(c1ccccc1F)N1CCN(Cc2c(-c3ccc(Br)cc3)nc3ccccn23)CC1` [Example 4, (4-{[2-(4-bromophenyl)imidazo[1,2-a]pyridin-3-yl]methyl}piperazin-1-yl)(2-fluorophenyl)methanone]: the “Duration of action [min], mean value” was 180 min (Formulation 1 (no glycerol), 100 μg per pig nasal, -50 mbar); 180 min (Formulation 1 (no glycerol), 100 μg per pig nasal, -100 mbar); above 300 min (Formulation 3 (glycerol 2.5% w/v), 100 μg per pig nasal, -50 mbar); 270 min (Formulation 3 (glycerol 2.5% w/v), 100 μg per pig nasal, -100 mbar).

As to `O=C(C1CCCC1)N1CCN(Cc2c(-c3ccc(Br)cc3)nc3ccccn23)CC1` [Example 1, (4-{[2-(4-bromophenyl)imidazo[1,2-a]pyridin-3-yl]methyl}piperazin-1-yl)(cyclopentyl)methanone], the “Duration of action [min], mean value” is, setting by setting: (Formulation 1 (no glycerol), 10 μg per pig nasal, -50 mbar) 150 min; (Formulation 1 (no glycerol), 10 μg per pig nasal, -100 mbar) 120 min; (Formulation 3 (glycerol 2.5% w/v), 10 μg per pig nasal, -50 mbar) above 270 min; (Formulation 3 (glycerol 2.5% w/v), 10 μg per pig nasal, -100 mbar) 240 min.

For the molecule `COc1cccc(C(=O)N2CCN(Cc3c(-c4ccc(Cl)cc4)nc4ccccn34)CC2)n1` [Example 3, (4-{[2-(4-chlorophenyl)imidazo[1,2-a]pyridin-3-yl]methyl}piperazin-1-yl)(6-methoxypyridin-2-yl)methanone], the “Duration of action [min], mean value” by setting is: (Formulation 1 (no glycerol), 30 μg per pig nasal, -100 mbar) 180* min; (Formulation 1 (phosphate buffer pH 7/polysorbate 80, no glycerol), 3 μg per pig nasal, -100 mbar) 150 min; (Formulation 2 (5% w/v glycerol 85%, 4.25 absolute), 3 μg per pig nasal, -100 mbar) 210 min; (Formulation 3 (2.5% w/v glycerol 85%, 2.125 absolute), 3 μg per pig nasal, -100 mbar) 240 min; (Formulation 3 (2.5% w/v glycerol 85%, 2.125 absolute), 30 μg per pig nasal, -100 mbar) 390 min; (Formulation 4 (1% w/v glycerol 85%, 0.85 absolute), 3 μg per pig nasal, -100 mbar) 150 min. For the same molecule, the “Duration of action [min], mean value” by setting is: (Formulation 5 (2.5% w/v glycerol 85% + 20% w/v PEG400), 3 μg per pig nasal, -100 mbar) 240 min; (Formulation 6 (20% w/v propylene glycol, no glycerol), 30 μg per pig nasal, -100 mbar) 180 min; (Formulation 7 (1.25% w/v Na-CMC, no glycerol), 3 μg per pig nasal, -100 mbar) 120 min.

Values taken from patent publication US20200093737A1, “PHARMACEUTICAL DOSAGE FORMS CONTAINING TASK-1 AND TASK-3 CHANNEL INHIBITORS, AND THE USE OF SAME IN BREATHING DISORDER THERAPY” (priority 2016, published 2020).
